The test system of the test is subjects with IGM. Put plainly: Multi-center, double-blind, parallel group, randomized study of nateglinide vs placebo before each main meal for 8 weeks in subjects with IGM. Type of test: in vivo, human. The settings on record: nateglinide 30 mg, 60 mg or 120 mg before each main meal, 8 weeks of treatment. How it is done: Favorable effects can be verified that confirm that hypoglycemic agents such as insulin enhancers can restore early phase insulin secretion and reduce post-prandial glucose levels in subjects with IGM. A multi-center, double-blind, parallel group, randomized study can be conducted in subjects with IGM in order to evaluate the incidence of confirmed hypoglycemia and the effects on prandial glucose associated with the administration of nateglinide 30 mg, 60 mg or 120 mg or placebo before each main meal during 8 weeks of treatment. Subjects are selected on the basis of a 2-hour plasma glucose value after a 75 g oral glucose tolerance test (OGTT) and patients essentially meeting the following additional inclusion criteria are included in the study: • two-hour glycemia post-OGTT between 7.8 to 11.1 mmol/L (one OGTT to be performed during the year before entering the study, the second to be performed within two weeks prior entering the study); • FPG <7 mmol/L; • patients are to have a body mass index (BMI) between 20-32 kg/m2; • patients are to maintain prior diet during the full course of study; • males, non-fertile females, females of child-bearing potential using a medically approved birth control method are included; • the use of other antidiabetics during the trial is not permitted. Corresponding dosages of e.g. nateglinide are administered with a large glass of water 2 (BID), 3 (TID) or 4 (QID) times daily depending on the number of main meals (breakfast, lunch, snack, dinner). The first dose is to be given with the first main meal (standardized meal i.e. 55% carbohydrates, 25% fat and 20% protein). Visits are scheduled to be performed at weeks 0, 2, 4 and 8 and the patients are to be fasted for at least 7 hours. All blood samples for laboratory evaluations are drawn between 07.00 and 10.00 a.m. HbA1c is to be measured at baseline. and after 8 weeks of treatment (fasting glucose and fructosamine). Samples of blood are to be drawn at 10, 20, […], 60, 120, and 180 minutes after drug administration (time 0) and the glucose and insulin levels to be measured. At weeks 0 and 8 visits, patients complete a standard meal challenge containing approximately 500 kcal and measurements of insulin and glucose will be performed. […] With longer treatment and follow-up, conditions and diseases associated with IGM could be prevented or reduced.

Experimental findings from patent publication US20070032538A1, “Use of compounds” (priority 1999, published 2007) are described below.

In the case of `CC(C)[C@H]1CC[C@H](C(=O)N[C@H](Cc2ccccc2)C(=O)O)CC1` [nateglinide, N-(trans-4-isopropylcyclohexylcarbonyl)-D-phenylalanine], the “2 hour prandial glucose levels” value is listed as “significantly reduced”, the HBA1c entry is “significantly reduced”, the “early phase insulin secretion” value is “restored” and the fructosamine levels entry is recorded as “significantly reduced”. For the same molecule, the “progression to type 2 diabetes mellitus” value is “could prevent or delay”.
